Where two headings read alike, the source gives them in different places.
Columns and labels:
[1] = molecular target: T1, HIV-1 IN (Human immunodeficiency virus type 1 group M subtype B, UniProt P04585); conditions: cited from earlier work; for IC50: read-out: IC50 against HIV-1 IN (converted); for Effect against HIV-1 IN: isolated from Coleus parvifolius
T1 construct: using HIV-1 IN enzymes according to the multiplate integration assay (MIA)

[2] = system: LPS-induced nitric oxide production in RAW264.7 cells; test: Inhibitory effect on LPS-induced nitric oxide (NO) production in RAW264.7 cells (Griess reagent); format: cell-based; conditions: for inhibition at 3 µM / inhibition at 10 µM / inhibition at 30 µM / inhibition at 100 µM: read-out: % Inhibition at various concentration (μM), NO production; for IC50: read-out: IC50, inhibition of LPS-induced NO production
Description: To evaluate the anti-inflammatory activity, an inhibitory effect on nitric oxide (NO) production was carried out according to the previous report described by Sudsai et al.. Briefly, RAW264.7 cells were seeded onto 96-well plates (1 × 10^5 cells/well) and were maintained to adhere at 37°C for 1 h in a CO2 incubator containing 5% CO2. They were then cultured in RPMI-1640 medium containing lipopolysaccharide (LPS, 100 ng/ml) together with the test compounds at various concentrations (3–100 μM). After 24 h of incubation, the nitrite (NO^2–) concentration in the culture medium was determined as an indicator of NO production using the Griess reagent to assay the accumulation of NO^2–, a stable metabolite of NO. The absorbance was measured using a microplate reader at 570 nm. In this study, NO synthase inhibitor (L-nitro-arginine, L-NA), nuclear translocation of NF-κB inhibitor (caffeic acid phenethyl ester, CAPE) and nonsteroidal anti-inflammatory drug, NSAID (indomethacin), were used as positive controls.

[3] = molecular target: T1, HIV-1 IN; test: HIV-1 IN inhibitory activity, multiplate integration assay (MIA); format: biochemical
Description: The anti-HIV IN activity of isolated compounds was determined in an in vitro model using HIV-1 IN enzymes according to the multiplate integration assay (MIA) as previously described. Briefly, a mixture (45 μL) composed of 12 μL of IN buffer (containing 150 mM 3-(N-morpholino)propanesulfonic acid, pH 7.2 (MOPS), 75 mM MnCl2, 5 mM dithiothreitol (DTT), 25% glycerol, and 500 μg/mL bovine serum albumin), 1 μL of 5 pmol/mL digoxigenin-labeled target DNA, and 32 μL of sterilized water was added into each well of a 96-well plate. Subsequently, 6 μL of sample solution in DMSO and 9 μL of a 1/5 dilution of the IN enzyme were added to each well and incubated at 37°C for 80 min. After washing the plate three times with PBS with 0.05% Tween 20 (PBST), 100 μL of 500 mU/mL alkaline phosphatase- (AP-) labeled anti-digoxigenin antibody was added and incubated at 37°C for 1 h. The plates were washed with PBS three times. Then, AP buffer (150 μL) containing 100 mM Tris-HCl (pH 9.5), 100 mM NaCl, 5 mM MgCl2, and 10 mM p-nitrophenyl phosphate was added to each well and incubated at 37°C for 1 h. Finally, the absorbance of p-nitrophenol, the final product of the integration reaction, was measured with a microplate reader (Rayto, RT-2100C) at a wavelength of 405 nm. Suramin, a polyanionic HIV-1 IN inhibitor, was used as a positive control.

[4] = system: RAW264.7 macrophage cells; test: Viability assay of RAW264.7 macrophage cells (MTT); conditions: 24 h, cytotoxic when viability less than 80% of control
Description: The cytotoxicity of the test compounds after 24 h of incubation was determined by the colorimetric method described by Sudsai et al.. A volume of 10 μl of MTT solution (5 mg/ml in PBS) was added to each well of 96-well plates and further incubated in a CO2 incubator for 4 h. The formazan products generated by MTT reduction were dissolved in DMSO. At last, the medium was removed, 100 μl of DMSO was then added to each well and thoroughly mixed by gently tapping on the test plate. The absorbance of formazan solution was measured at a wavelength of 570 nm using a microplate reader. The test compounds were considered to be cytotoxic when the viability of the compound-treated group was less than 80% of that in the control (1% DMSO-treated) group.

[5] = read-out: % Inhibition at various concentrations
[6] = mean ± S.E.M. of four determinations, read-out: IC50, anti-HIV-1 integrase activity
[7] = Mus musculus, RAW264.7, 3 μM, LPS 100 ng/ml, 24 h
[8] = Mus musculus, RAW264.7, 10 μM, LPS 100 ng/ml, 24 h
[9] = Mus musculus, RAW264.7, 30 μM, LPS 100 ng/ml, 24 h
[10] = Mus musculus, RAW264.7, 100 μM, LPS 100 ng/ml, 24 h
[11] = Mus musculus, RAW264.7 cells, LPS 100 ng/ml, 24 h

Row | Compound | inhibition at 10 µM [3, 5] [%] | inhibition at 30 µM [3, 5] [%] | inhibition at 100 µM [3, 5] [%] | IC50 [3, 6] [µM] | inhibition at 3 µM [2, 7] [%] | inhibition at 10 µM [2, 8] [%] | inhibition at 30 µM [2, 9] [%] | inhibition at 100 µM [2, 10] [%] | IC50 [2, 11] [µM] | also measured
1 | Oc1cc(O)c2c(c1)CCc1cc(O)c(O)cc1-2 [2,4,6,7-tetrahydroxy 9,10-dihydrophenanthrene] | – | – | – | – | – | – | – | – | – | IC50 ([1]; from bulbils of Dioscorea bulbifera): 14.2 µM
2 | Oc1cc(O)c2c(c1)O[C@H](c1ccc(O)c(O)c1)[C@@H](O)C2 [(+)-Catechin] | – | – | – | – | – | – | – | – | – | IC50 ([1]; isolated from Albizia procera bark): 46.3 µM
3 | C=C(C)[C@@H]1CC[C@]2(CO)CC[C@]3(C)[C@H](CC[C@@H]4[C@@]5(C)CC[C@H](O)C(C)(C)[C@@H]5CC[C@]43C)[C@@H]12 [Betulin (2), betulin] | 41.2 ± 1.5 | 57.6 ± 1.2 | 70.7 ± 2.1 | 17.7 ± 0.6 | – | – | – | – | – | inhibition at 3 µM ([2]; Mus musculus, RAW264.7, 24 h): 2.9 ± 1.9%; inhibition at 10 µM ([2]; Mus musculus, RAW264.7, 24 h): 13 ± 1.6%; inhibition at 30 µM ([2]; Mus musculus, RAW264.7, 24 h): 58 ± 1.1%; inhibition at 100 µM ([2]; Mus musculus, RAW264.7, 24 h): 81.8 ± 1.2%; IC50 ([2]; Mus musculus, RAW264.7, 24 h): 30.1 ± 0.3 µM; Cytotoxicity to RAW 264.7 cells [4]: caused cytotoxicity
4 | C=C(C)[C@@H]1CC[C@]2(C(=O)O)CC[C@]3(C)[C@H](CC[C@@H]4[C@@]5(C)CC[C@H](O)C(C)(C)[C@@H]5CC[C@]43C)[C@@H]12 [Betulinic acid (1), betulinic acid] | 39 ± 2.3 | 53.2 ± 1.2 | 65.6 ± 2.1 | 24.8 ± 1.3 | 14.6 ± 2.3 | 22.1 ± 1.2 | 49.4 ± 3.2 | 79.5 ± 1.7 | 31 ± 1.9 | –
5 | O=C(/C=C/c1ccc(O)c(O)c1)OCCc1ccccc1 [CAPE, caffeic acid phenethyl ester, reference compound] | – | – | – | – | 22.7 ± 3.1 | 48.6 ± 0.7 | 66.8 ± 0.5 | 85.9 ± 1 | 12.3 ± 0.8 | –
6 | COc1ccc2c(c1)c(CC(=O)O)c(C)n2C(=O)c1ccc(Cl)cc1 [Indomethacin, indomethacin, reference compound] | – | – | – | – | 32 ± 2.6 | 43.8 ± 1.2 | 54.1 ± 2 | 79 ± 1.4 | 17.6 ± 1.6 | –
7 | NC(=NCCC[C@H](N)C(=O)O)N[N+](=O)[O-] [L-NA, L-nitro-arginine, reference compound] | – | – | – | – | – | – | – | – | – | % Inhibition at various concentration (μM), NO production ([2]; 3 μM, LPS 100 ng/ml, 24 h): 19.3 ± 4.7%; % Inhibition at various concentration (μM), NO production ([2]; 10 μM, LPS 100 ng/ml, 24 h): 22.1 ± 1.9%; % Inhibition at various concentration (μM), NO production ([2]; 30 μM, LPS 100 ng/ml, 24 h): 32.6 ± 3.5%; % Inhibition at various concentration (μM), NO production ([2]; 100 μM, LPS 100 ng/ml, 24 h): 79.7 ± 4.8%; IC50 ([2]; RAW264.7 cells, LPS 100 ng/ml, 24 h): 40.4 ± 6.1 µM
8 | C=C(C)[C@@H]1CC[C@]2(C)CC[C@]3(C)[C@H](CC[C@@H]4[C@@]5(C)CC[C@H](O)C(C)(C)[C@@H]5CC[C@]43C)[C@@H]12 [Lupeol (3), lupeol] | 12.2 ± 1.3 | 25.9 ± 2 | 40.6 ± 1.8 | > 100 | 6 ± 1.7 | 11.4 ± 2.7 | 23.4 ± 1.9 | 78.2 ± 1 | 47.3 ± 1 | IC50, anti-HIV-1 integrase activity ([3]; mean ± S.E.M. of four determinations): inactive; Cytotoxicity to RAW 264.7 cells [4]: caused cytotoxicity
9 | CN1C[C@H](O)C[C@H]1C(=O)O [N-methyl-trans-4-hydroxy-L-proline] | – | – | – | – | – | – | – | – | – | IC50 ([1]; from Aglaia andamanica leaves): 81.3 µM
10 | CC1(C)CC[C@]2(C(=O)O)CC[C@]3(C)C(=CC[C@@H]4[C@@]5(C)CC[C@H](O)C(C)(C)[C@@H]5CC[C@]43C)[C@@H]2C1 [Oleanolic acid (4), oleanolic acid] | 33.4 ± 1.8 | 49.1 ± 2.2 | 65.5 ± 1.5 | – | 10.9 ± 1.8 | 18.4 ± 1.2 | 28.2 ± 3.2 | 63.4 ± 1 | 62.8 ± 3.6 | IC50 ([3]; IC50, anti-HIV-1 integrase activity, mean ± S.E.M. of four determinations): 30.3 ± 1.3 µM
11 | Cc1ccc(C(=O)Nc2ccc(S(=O)(=O)O)c3cc(S(=O)(=O)O)cc(S(=O)(=O)O)c23)cc1NC(=O)c1cccc(NC(=O)Nc2cccc(C(=O)Nc3cc(C(=O)Nc4ccc(S(=O)(=O)O)c5cc(S(=O)(=O)O)cc(S(=O)(=O)O)c45)ccc3C)c2)c1 [Suramin, reference compound] | 70.9 ± 1.5 | 93.3 ± 1.3 | 99.9 ± 1.7 | 2.8 ± 0.1 | – | – | – | – | – | inhibition at 1 µM ([3]; 1 μM, read-out: % Inhibition at various concentrations): 32.1 ± 0.6%; inhibition at 3 µM ([3]; 3 μM, read-out: % Inhibition at various concentrations): 50.3 ± 1.6%; IC50 ([3]; mean ± S.E.M. of four determinations, read-out: IC50, anti-HIV-1 IN activity of B. alnoides extract and its fractions (converted)): 3.01 µM
12 | C[C@H]1[C@H](C)CC[C@]2(C(=O)O)CC[C@]3(C)C(=CC[C@@H]4[C@@]5(C)CC[C@H](O)C(C)(C)[C@@H]5CC[C@]43C)[C@H]12 [Ursolic acid (5), ursolic acid] | 31.6 ± 0.9 | 48.5 ± 1.2 | 60.2 ± 2.1 | 35 ± 1 | 5.4 ± 2.3 | 10.2 ± 3.2 | 13.6 ± 3.2 | 67.1 ± 1.8 | 68.7 ± 5.9 | –
13 | O=C(/C=C/c1ccc(O)cc1)CC(=O)/C=C/c1ccc(O)cc1 [bisdemethoxycurcumin] | – | – | – | – | – | – | – | – | – | IC50 ([1]; from rhizomes of Boesenbergia kingii): 47.7 µM
14 | COc1cc(O)c2c(=O)cc(-c3ccc(O)c(O)c3)oc2c1 [luteolin 7-methyl ether] | – | – | – | – | – | – | – | – | – | Effect against HIV-1 IN [1]: potent
15 | O=c1cc(-c2ccc(O)c(O)c2)oc2cc(O)cc(O)c12 [luteolin] | – | – | – | – | – | – | – | – | – | Effect against HIV-1 IN [1]: potent
16 | O=C(O)c1ccc(O)c(O)c1 [protocatechuic acid] | – | – | – | – | – | – | – | – | – | % inhibition of HIV-1 IN ([1]; 100 μM): 46.0%

— publication PMC6589325, “Evaluation of Anti-HIV-1 Integrase and Anti-Inflammatory Activities of Compounds from Betula alnoides Buch-Ham” (Advances in Pharmacological Sciences, 2019)
